Reference: article PMC11975549, “Development of Potent Type V MAPK Inhibitors: Design, Synthesis, and Biological Evaluation of Benzothiazole Derivatives Targeting p38α MAPK in Breast Cancer Cells” (Archiv Der Pharmazie, 2025)
Values joined by “and” are separate entries in the source; they are usually repeats but may differ in a detail not shown here. Identical values can stand only once. Like-named read-outs stand apart in the source and are kept apart here.

Key:
p38α MAPK [1] = conditions: cited from earlier work
normal prostate cells = system: normal prostate cells; parameters: method as in PMID 31838901; conditions: cited from earlier work
prostate cancer cells = system: prostate cancer cells; parameters: method as in PMID 31838901; conditions: cited from earlier work
HeLa cells = system: HeLa cells; parameters: method as in PMID 34328852; conditions: cited from earlier work
p38α MAPK [2] = system: p38α MAPK; parameters: method as in PMID 34328852; conditions: HeLa cells, compared with the control anisomycin (30 μM); cited from earlier work
MDA‐MB‐231 cell line = system: MDA‐MB‐231 cell line; parameters: method as in PMID 30792101; conditions: MTT assay; cited from earlier work
MCF7 cell line = system: MCF7 cell line; parameters: method as in PMID 30792101; conditions: MTT assay; cited from earlier work
p38α MAPK [3] = system: p38α MAPK; parameters: method as in PMID 34894967; conditions: MCF‐7 cells; cited from earlier work
L929 cells = assay: MTT cytotoxicity assay, L929 healthy cells; type: cell-based; conditions: healthy mouse fibroblast
Procedure: (§1) Cell culture experiments were performed to assess the antiproliferative efficacy of the synthesized benzothiazole compounds on the MCF7 and MDA‐MB‐231 cell lines. The anticancer activity of the compounds were compared with the L929 healthy cell line as a control. Doxorubicin and cisplatin, the anticancer agents, were employed as positive controls.
(§2) Human epithelial breast adenocarcinoma (MDA‐MB‐231) (ATCC® HTB‐26™), human epithelial breast adenocarcinoma (MCF7) (ATCC® HTB‐22™), and healthy mouse fibroblast (L929) (ATCC® CRL‐10317™) cells were obtained commercially from ATCC.
(§3) MDA‐MB‐231, MCF7, and L929 cells were seeded in 25 cm² flasks. DMEM medium containing 10% FBS, 1% Penicillin‐Streptomycin, L‐Glutamine, and NaHCO₃ was used as the cell culture medium. The cells were incubated and propagated at 37°C in an environment containing 5% CO₂ and 95% humidity. When the cells reached 80%–90% confluency, they were passaged to different media. During passaging, DMEM was first withdrawn, and the cells were washed with PBS to remove FBS from the medium. Then, Trypsin‐EDTA solution was added to the flask to detach the cells, and the flask was kept in a CO₂ incubator for approximately 1 min. To stop the activity of Trypsin‐EDTA medium containing FBS was added to the flask. The cells were collected into a Falcon tube and centrifuged at 800 rpm for 5 min at room temperature. The supernatant was discarded, and the cell pellet was resuspended in the medium and seeded on cell culture plates according to the experimental protocol.
(§4) A total of 2 mg of each compound was dissolved in an appropriate amount of dimethyl sulfoxide (DMSO) to prepare 10 mM stock solutions. These stock solutions were then diluted to create 100 μM intermediate stocks and stored at −80°C. Commercially purchased cisplatin and doxorubicin HCl (Sigma, St. Louis, MO) were dissolved in DMSO following the manufacturer's protocol to create 20 mM stock solutions. These standard drug molecules were diluted from the stock solution, divided into 100 μM aliquots, and stored at –80°C until use.
(§5) MTT analysis was performed to evaluate the in vitro cytotoxicity of the synthesized compounds against different cancer cell lines. Cells used in the cytotoxicity experiments were cultured in DMEM medium supplemented with 10% FBS. Cells suspended in the medium (2 × 10⁴ cells/mL) were seeded into 96‐well culture plates and incubated at 37°C in a 5% CO₂ incubator. After 12 h, compounds were added at different doses (2 µL) to cells (2 × 10⁴) in the 96‐well plates and incubated at 37°C for 24 h.
(§6) The incubated cells were then treated with 20 µL of MTT solution and incubated at 37°C for 4 h. The supernatant was carefully removed from each well, and 100 µL of DMSO was added to each well to dissolve the formazan crystals formed by the cellular reduction of MTT. The absorbance was measured at 570 nm using an ELISA reader. […] At the end of the experiment, the device calculated the IC50 value for each well, and the average values were recorded. Each experiment was performed in at least three replicates.

MDA‐MB‐231 cells = assay: MTT antiproliferative assay, MDA-MB-231; type: cell-based, human; conditions: for IC50: MTT, 24 h incubation; for Selectivity MDA‐MB‐231: Selectivity index = L929 IC50 / MDA‐MB‐231 IC50 (24 h)
Procedure: as §1, §2, §3, §4, §5, §6

p38 MAPKα = assay: p38 MAPK alpha ELISA, total level in treated MCF7 cells normalised to total protein (BCA); type: cell-based, human; conditions: MCF7 cells exposed to compound
From the text: To account for variations in protein quantities among the cells. The total protein concentrations in cells subjected to the drugs were quantified. The p38 MAPKα levels were adjusted by dividing by the protein levels, yielding results represented as ng/μg protein (Table 3).
A bicinchoninic acid (BCA) protein assay kit (catalog no. 23227) was obtained from Thermo‐Fisher Scientific (IL, USA) and used to detect total protein by the BCA assay. In this assay, the reaction between BCA, Cu²⁺ ions, and Cu⁺ ions form a purple complex in alkaline conditions. The absorbance of this complex was measured at 562 nm, and the results were expressed in mg/mL.
The p38 MAPK alpha ELISA Kit (ab221012; Abcam, Cambridge, MA) was used to measure the levels of […] in cell lysates according to the manufacturer's instructions. The SimpleStep Enzyme‐Linked Immunosorbent Assay (ELISA) kit was designed to assess total p38 MAPKα protein semi‐quantitatively. The SimpleStep ELISA uses a reporter‐conjugated detection antibody, and an affinity‐tag labeled capture antibody to immunocapture the sample analyte in solution. An anti‐tag antibody coating the well immobilizes the entire complex (capture antibody, analyte, and detection antibody).
Samples or controls were added to the wells, followed by the Antibody Cocktail to complete the test. After incubation, the wells were washed to remove unbound material. […] The levels of MAPK were normalized to total protein content.

MCF7 cells = assay: MTT antiproliferative assay, MCF7; type: cell-based, human; conditions: for IC50: MTT, 24 h incubation; for Selectivity MCF7: Selectivity index = L929 IC50 / MCF7 IC50 (24 h)
Procedure: as §1, §2, §3, §4, §5, §6

COc1cccc(-c2nn(-c3ccccc3)cc2-c2ccncc2)c1 [Compound 4d]
IC50 (p38α MAPK [1]; relative selectivity in comparison to 15 other kinases, read-out: IC50 p38α): 515 nM

COc1cccc(CNC(=O)c2ccc(N3CCOCC3)c(NC(=O)Nc3ccc(F)cc3F)c2)c1 [Compound 5e]
damage to normal prostate cells (normal prostate cells): without causing considerable damage
viability, proliferation and migration of prostate cancer cells (prostate cancer cells): inhibited the viability and reduced the proliferation and migration

COc1c(-c2cc(-c3ccc(C)o3)c(C#N)c(N)n2)c(O)c(Br)c2occc12 [Compound 6f]
IC50 (p38α MAPK [1]; read-out: IC50 p38α MAP kinase): 40 nM

O=c1oc2ccccc2c(O)c1C1=CC(c2ccc(F)cc2)NC(=S)N1 (centres unmarked) [Compound 7g]
reduction in cell viability (HeLa cells; 10 μM): 80%
reduction in cell viability (HeLa cells; 30 μM): 72%
suppression of p38α MAPK activation (p38α MAPK [2]): 0.64

COc1c(-c2cc(-c3ccc(F)cc3)c(C#N)c(=N)[nH]2)c(O)c(Br)c2occc12 [Compound 8h]
IC50 (p38α MAPK [1]; read-out: IC50 p38α MAPK): 270 nM

COc1c(C(=O)/C=C/c2ccc(C)o2)c(O)c(Br)c2occc12 [Compound 9i]
IC50 (MDA‐MB‐231 cell line): 2.09 µM
IC50 (p38α MAPK [1]; read-out: IC50 p38α MAP kinase): 40 nM
IC50 (MCF7 cell line): 1.35 µM

Cc1ccc(C(=O)/C=C/c2ccc(Oc3ccc(Br)cc3)cc2)cc1 [Compound 10j]
total p38α MAPK and phosphorylated enzyme levels (p38α MAPK [3]): reduced

CCNC(=O)c1ccc(C)c(NC(=O)c2ccc3c(-c4ccc(Cl)cc4)n[nH]c3c2)c1 [Compound 11k, 3‐(4‐chlorophenyl)‐N‐(5‐(ethylcarbamoyl)‐2‐methylphenyl)‐1H‐indazole‐6‐carboxamide]
IC50 (p38α MAPK [1]; read-out: IC50 p38α MAPK): 3370 ± 240 nM

Clc1cccc(Cl)c1Nc1ccccc1Cc1nncn1Nc1nc2ccccc2s1 [Compound 12l]
IC50 (p38α MAPK [1]; read-out: IC50 p38α MAPK): 36 nM

O=C(CSc1nnc(COc2ccccc2)n1-c1ccc(F)cc1)Nc1nc2ccccc2s1 [Compound 13m]
IC50 (p38α MAPK [1]; read-out: IC50 p38α MAPK): 31 nM

O=C(NCc1nc2ccccc2s1)c1ccco1 [Compound 15, N‐(Benzo[d]thiazol‐2‐ylmethyl) furan‐2‐carboxamide]
IC50 (L929 cells; L929, 24 h incubation): 26.8 ± 0.84 µM
IC50 (MDA‐MB‐231 cells; Homo sapiens, MDA-MB-231): 11.78 ± 0.11 µM
Selectivity MDA‐MB‐231 (MDA‐MB‐231 cells): 2.272
Total p38α MAPK levels (p38 MAPKα): 0.155 ng/μg protein and 0.155 ± 0.045 ng/μg protein
IC50 (MCF7 cells; Homo sapiens, MCF7): 8.83 ± 0.43 µM
Selectivity MCF7 (MCF7 cells): 3.031

COc1ccc(C(=O)NCc2nc3ccccc3s2)cc1 [Compound 17, N‐(Benzo[d]thiazol‐2‐ylmethyl)‐4‐methoxybenzamide]
IC50 (L929 cells; L929, 24 h incubation): 25.09 ± 0.18 µM
IC50 (MDA‐MB‐231 cells; Homo sapiens, MDA-MB-231): 16.7 ± 0.36 µM
Selectivity MDA‐MB‐231 (MDA‐MB‐231 cells): 1.499
Total p38α MAPK levels (p38 MAPKα): 6.411 ± 1.604 ng/μg protein
IC50 (MCF7 cells; Homo sapiens, MCF7): 11.1 ± 0.23 µM
Selectivity MCF7 (MCF7 cells): 2.271

Cc1ccc(C(=O)NCc2nc3ccccc3s2)cc1 [Compound 18, N‐(Benzo[d]thiazol‐2‐ylmethyl)‐4‐methylbenzamide]
IC50 (L929 cells; L929, 24 h incubation): 29.1 ± 0.52 µM
IC50 (MDA‐MB‐231 cells; Homo sapiens, MDA-MB-231): 20.2 ± 0.73 µM
Selectivity MDA‐MB‐231 (MDA‐MB‐231 cells): 1.442
Total p38α MAPK levels (p38 MAPKα): 1.34 ± 0.154 ng/μg protein
IC50 (MCF7 cells; Homo sapiens, MCF7): 11.2 ± 0.75 µM
Selectivity MCF7 (MCF7 cells): 2.604

O=C(Cc1ccccc1)Nc1nc2ccccc2s1 [Compound 19, N‐(Benzo[d]thiazol‐2‐yl)‐2‐phenylacetamide]
IC50 (L929 cells; L929, 24 h incubation): 93.9 ± 1.9 µM
IC50 (MDA‐MB‐231 cells; Homo sapiens, MDA-MB-231): 10.74 ± 0.03 µM
Selectivity MDA‐MB‐231 (MDA‐MB‐231 cells): 8.744
Total p38α MAPK levels (p38 MAPKα): 0.112 ng/μg protein and 0.112 ± 0.001 ng/μg protein
IC50 (MCF7 cells; Homo sapiens, MCF7): 6.19 ± 1.05 µM
Selectivity MCF7 (MCF7 cells): 15.171

COc1cccc(CC(=O)Nc2nc3ccccc3s2)c1 [Compound 21, N‐(Benzo[d]thiazol‐2‐yl)‐2‐(3‐methoxyphenyl) acetamide]
IC50 (L929 cells; 24 h incubation): 66.3 ± 1.82 µM
IC50 (MDA‐MB‐231 cells): 6.42 ± 0.07 µM
Selectivity MDA‐MB‐231 (MDA‐MB‐231 cells): 10.330
Total p38α MAPK levels (p38 MAPKα): 1.333 ± 0.007 ng/μg protein
IC50 (MCF7 cells): 7.09 ± 0.02 µM
Selectivity MCF7 (MCF7 cells): 9.354

O=C(Cc1ccc(F)cc1)Nc1nc2ccccc2s1 [Compound 22, N‐(Benzo[d]thiazol‐2‐yl)‐2‐(4‐fluorophenyl) acetamide]
IC50 (L929 cells; 24 h incubation): 210.6 ± 1.67 µM
IC50 (MDA‐MB‐231 cells): 3.8 ± 0.28 µM
Selectivity MDA‐MB‐231 (MDA‐MB‐231 cells): 55.413
Total p38α MAPK levels (p38 MAPKα): 3.952 ± 0.311 ng/μg protein
IC50 (MCF7 cells): 5.05 ± 0.01 µM
Selectivity MCF7 (MCF7 cells): 41.697

O=C(Cc1ccc(Cl)cc1)Nc1nc2ccccc2s1 [Compound 23, N‐(Benzo[d]thiazol‐2‐yl)‐2‐(4‐chlorophenyl) acetamide]
IC50 (L929 cells; 24 h incubation): 54 ± 1.08 µM
IC50 (MDA‐MB‐231 cells): 7.04 ± 0.18 µM
Selectivity MDA‐MB‐231 (MDA‐MB‐231 cells): 7.666
Total p38α MAPK levels (p38 MAPKα): 2.331 ± 1.241 ng/μg protein
IC50 (MCF7 cells): 8.24 ± 0.19 µM
Selectivity MCF7 (MCF7 cells): 6.550

O=C(Cc1cccs1)NCc1nc2ccccc2s1 [Compound 28, N‐(Benzo[d]thiazol‐2‐ylmethyl)‐2‐(thiophen‐2‐yl) acetamide]
IC50 (L929 cells; 24 h incubation): 31 ± 0.33 µM
IC50 (MDA‐MB‐231 cells): 18.8 ± 0.23 µM
Selectivity MDA‐MB‐231 (MDA‐MB‐231 cells): 1.655
Total p38α MAPK levels (p38 MAPKα): 2.542 ± 0.228 ng/μg protein
IC50 (MCF7 cells): 11.1 ± 0.37 µM
Selectivity MCF7 (MCF7 cells): 2.794

CS(=O)(=O)CCNCc1ccc(-c2ccc3ncnc(Nc4ccc(OCc5cccc(F)c5)c(Cl)c4)c3c2)o1 [lapatinib]
IC50 (MDA‐MB‐231 cell line): 4.69 µM
IC50 (MCF7 cell line): 4.69 µM
